# According to EP0415303B1, “Pyrido [2,3-b][1,5]benzoxazepin (and thiazepin)-5(6H)-ones and -thiones and their use in the prevention or treatment of HIV infection” (BOEHRINGER INGELHEIM PHARMACEUTICALS INC., priority 1989, dated 1991):
# Tested on: not listed separately
# Assay: MTT Assay for Cellular Cytotoxicity
# Type: cell-based
# Conditions: human; H9 cells, five days incubation, MTT read at 570nm; read-out: Cytotoxicity Assay (EC₅₀)
# Method: In order to roughly assess the cytotoxicity of the compounds provided by the invention, several such compounds were tested in the MTT Cellular Cytotoxicity Assay described below. Compounds having a relatively high EC₅₀ are preferred.
# The MTT [3-(4,5-dimethylthiazol-2-yl)-2,5 diphenyl tetrazolium bromide) assay is based on cleavage of tetrazolium bromide by metabolically active cells, resulting in a highly quantitative blue color. This assay has been previously described (1) but has been optimized for the purposes of the testing reported herein.
# The H9 cell line (2), an established human lymphoma suspension cell line grown in RPMI 1640 supplemented with 10% fetal bovine serum, is used as the target cell line in the assay. Cells (100»l) are plated in microtest plate wells at a concentration of 10⁵ cells per ml in the presence of varying concentrations of inhibitor. The cells are incubated at 37°C in a humidified CO₂ incubator. Five days later, 20»l of MTT (5mg/ml in RPMI 1640, sonicated, 0.2 micron filtered, and stored at 4°C) is added to each well. After 4 hours additional incubation at 37°C, 60»l of Triton-X is added to each well and thoroughly mixed to aid the solubilization of the crystals. Absolute ethanol (5»l) is added to each well and the resulting mixture is incubated for 30 minutes at 60°C and immediately read on a plate reader (Dynatech) at a wavelength of 570nm. […]
row,Structure (SMILES),CC50 at 120 h [µM]
1,"Cc1ccc2c(c1)Oc1ncc(N)cc1C(=O)N2C [Example 3, 3-Amino-6,9-dimethylpyrido[2,3-b][1,5]benzoxazepin-5(6H)-one]",315

# Biological target: T1, HIV-1 RT (Human immunodeficiency virus type 1 group M subtype B, UniProt P03367)
# T1 construct: Reverse transcriptase enzyme from the LAV strain of Human Immunodeficiency Virus (HIV-1) (1) was isolated from the bacterial strain JM109; made in house; host or cells: E. coli JM109, clone pBRTprtl+ in vector pIBI21 (lac promoter, IPTG induction)
# Assay: Reverse Transcriptase (RT) Assay: inhibition of RNA-dependent DNA polymerase activity
# Type: biochemical
# Design: RT Inhibition % @ 10 »g/ml: tested at 10 µg/ml
# Conditions: compound at 1 »M (footnote *); read-out: RT Inhibition % (* % inh. @ 1 »M)
# Source text: Utilizing the Reverse Transcriptase (RT) Assay described below, compounds can be tested for their ability to inhibit the RNA-dependent DNA polymerase activity of HIV-1 RT. Certain specific compounds described in the Examples which appear below, were so tested.
# Among the enzymes for which Human Immunodeficiency Virus (HIV-1) encodes is a reverse transcriptase (1), so-named because it transcribes a DNA copy from an RNA template. This activity can be quantitatively measured in a cell-free enzyme assay, which has been previously described (2), and is based upon the observation that reverse transcriptase is able to use a synthetic template [poly r(C) primed with oligo d(G)] to transcribe a radio-labelled, acid-precipitable DNA strand utilizing ³H-dGTP as a substrate.
# Reverse transcriptase enzyme from the LAV strain of Human Immunodeficiency Virus (HIV-1) (1) was isolated from the bacterial strain JM109 (3) expressing the DNA clone pBRTprtl+ (2) which is under the control of the lac promotor in the expression vector pIBI21 (4). An overnight culture grown in 2XYT medium (37°C, 225 rpm) (5) supplemented with 100 »g/ml ampicillin for positive selection is inoculated at a 1:40 dilution into M9 medium supplemented with 10»g/ml thiamine, 0.5% casamino acids, and 50 »g/ml ampicillin (5). The culture is incubated (37°C, 225 rpm) until it reaches an OD540 of 0.3-0.4. At that time the repressor inhibitor IPTG (isopropyl β-D-thiogalactopyranoside) is added to 0.5mM, and the mixture is incubated for 2 additional hours. Bacteria are pelleted, resuspended in a 50mM Tris, 0.6mM EDTA, 0.375M NaCl buffer and digested by the addition of lysozyme (1mg/ml) for 30 minutes on ice. The cells are lysed by the addition of 0.2% NP-40 and brought to 1M NaCl.
# After removal of the insoluble debris by centrifugation, the protein is precipitated by the addition of 3 volumes of saturated aqueous ammonium sulfate. The enzyme is pelleted, resuspended in RT buffer (50mM Tris pH 7.5, 1mM EDTA, 5mM DTT, 0.1% NP-40, 0.1M NaCl, and 50% glycerol), and stored at -70°C for further use.
# The 2X concentrated stock reaction mixture is aliquoted and stored at -20°C. The mixture is stable and thawed for use in each assay. This enzyme assay has been adapted to a 96 well microtiter plate system, and has been previously described (6). Tris buffer (50 mM, pH 7.4), vehicle (solvent diluted to match the compound dilution), or compounds in vehicle are dispensed into 96-well microtiter plates (10»l/well; 3 wells/ compound). The HIV-1 RT enzyme is thawed, diluted in 50mM Tris pH 7.4 so that fifteen »l of diluted enzyme contain 0.001 Unit (one unit is that amount of enzyme to transform 1 micromole of substrate per minute at 25°C), and fifteen »l are dispensed per well. Twenty »l of 0.12-0.5M EDTA are added to the first three wells of the microtiter plate. EDTA chelates the Mg⁺⁺ present and prevents reverse transcription. This group serves as background polymerization which is subtracted from all other groups. Twenty-five ul of the 2X reaction mixture are added to all wells and the assay is allowed to incubate at room temperature for 60 minutes. The assay is terminated by precipitating the DNA in each well with 50»l of 10% trichloracetic acid (TCA) (10% w/v) in sodium pyrophosphate (1% w/v). The microtiter plate is incubated for 15 minutes at 4°C and the precipitate is fixed onto #30 glass fiber paper (Schleicher & Schuell) using a Skatron semi-automatic harvester. The filters are then washed with additional TCA (5%) containing sodium pyrophosphate (1%), rinsed with aqueous ethanol (70%), dried, and transferred to scintillation vials (6). Each vial receives 2 mls of scintillation cocktail and is counted in a Beckman beta counter.
# The calculation for percent inhibition is as follows: [formula]
row,Structure (SMILES),inhibition at 1 µM [%]
1,"CCN1C(=O)c2cc(N)cnc2Oc2cc(C)cc(C)c21 [Example 5, 3-Amino-7,9-dimethyl-6-ethylpyrido[2,3-b][1,5]benzoxazepin-5(6H)-one]",93
2,"Cc1ccc2c(c1)Oc1ncccc1C(=O)N2C [Example 11, 6,9-Dimethylpyrido[2,3-b][1,5)benzoxazepin-5(6H)-one]",43
3,"Cc1cc(C)c2c(c1)Oc1ncc(N)cc1C(=O)N2C [Example 4, 3-Amino-6,7,9-trimethylpyrido[2,3-b][1,5]benzoxazepin-5(6H)-one]",92
4,"CCCN1C(=O)c2cc(N)cnc2Oc2cc(C)cc(C)c21 [Example 6, 3-Amino-7,9-dimethyl-6-(n-propyl)pyrido[2,3-b][1,5]benzoxazepin-5(6H)-one]",82
5,"CCN1C(=O)c2cccnc2Oc2cc(C)ccc21 [Example 12, 6-Ethyl-9-methylpyrido[2,3-b][1,5]benzoxazepin-5(6H)-one]",67
6,"Cc1ccc2c(c1)Oc1ncc(N)cc1C(=O)N2C [Example 3, 3-Amino-6,9-dimethylpyrido[2,3-b][1,5]benzoxazepin-5(6H)-one]",57
7,"CCN1C(=O)c2cccnc2Oc2cccc(N)c21 [Example 14, 7-Amino-6-ethylpyrido[2,3-b][1,5]benzoxazepin-5(6H)-one]",33

# Same assay, conditions: compound at 2.5 »M (footnote †); read-out: RT Inhibition % († % inh. @ 2.5 »M)
row,Structure (SMILES),inhibition at 2.5 µM [%]
1,"Cc1ccc2c(c1)Oc1ncc(O)cc1C(=O)N2C [Example 13, 3-Hydroxy-6,9-dimethylpyrido[2,3-b][1,5]benzoxazepin-5(6H)-one]",41

# Same assay, conditions: poly r(C)/oligo d(G) template, ³H-dGTP, 60 minutes at room temperature
row,Structure (SMILES),RT Inhibition % @ 10 »g/ml [%]
1,"CCCN1C(=O)c2cccnc2Oc2ccccc21 [Example 1, 6-(n-Propyl)pyrido[2,3-b][1,5]benzoxazepin-5(6H)-one]",80
2,"CN1C(=O)c2cccnc2Sc2ccccc21 [Example 15, 6-Methylpyrido[2,3-b][1,5]benzothiazepin-5(6H)-one]",85
3,"CCC(=O)N1C(=O)c2cccnc2Oc2ccccc21 [Example 10, 6-Propionylpyrido[2,3-b][1,5]benzoxazepin-5(6H)-one]",28
4,"CCN1C(=O)c2cccnc2Oc2ccccc21 [Example 8, 6-Ethylpyrido[2,3-b][1,5]benzoxazepin-5(6H)-one]",77
5,"C=CCN1C(=O)c2cccnc2Oc2ccccc21 [Example 9, 6-Allylpyrido[2,3-b][1,5]benzoxazepin-5(6H)-one]",89
6,"CN1C(=O)c2cccnc2Oc2ccccc21 [Example 7, 6-Methylpyrido[2,3-b][1,5]benzoxazepin-5(6H)-one]",71
7,"CCN1C(=O)c2cccnc2Sc2ccccc21 [Example 2, 6-Ethylpyrido[2,3-b][1,5]benzothiazepin-5(6H)-one]",89
